# Non-standard residues stand in square brackets, D forms with d. Residues, ends and D or L forms follow the SMILES beside them. dPhe(4-Cl) = N[C@H](Cc1ccc(Cl)cc1)C(=O)O; d2Nal = N[C@H](Cc1ccc2ccccc2c1)C(=O)O; dCit = NC(=O)NCCC[C@@H](N)C(=O)O; d3Pal = N[C@H](Cc1cccnc1)C(=O)O
# Columns and labels:
# [1] = tested on: BPH patients; experiment: Clinical therapy of BPH with Cetrorelix; assay type: in vivo
# Experimental: Cetrorelix is administered in a dose of 0.5 mg to 2 mg daily for 4 to 8 weeks for the therapy of BPH. A dose of 5 mg to 30 mg, dispensed once per week or every 10 days also over a time period of 4 to 8 weeks as well as one every two weeks or one injection per month of 20 mg to 60 mg can also decisively improve the clinical symptoms and signs. […] The prostate volume decreases by 20 to 40% during the treatment time of 4 to 8 weeks. […] In addition, at least 30% of the patients achieve an improvement of the urine flow of 6 ml/sec with this therapy. This is almost equivalent to an improvement like that associated with the golden standard operation, and in considerably shorter time. […] These clinical benefits continue for at least 3 to 6 months after therapy. This allows a long-term therapy of BPH with only an intermittent treatment of 2 to max. 4 injection cycles over 4 to 8 weeks.
# [2] = tested on: BPH patients; details: cited from earlier work
# [3] = tested on: Prostate carcinoma patients; details: 500 μg every 12 hours for 6 weeks; cited from earlier work
compound,measurement,setting,value
CC(=O)N[C@H](Cc1ccc2ccccc2c1)C(=O)N[C@H](Cc1ccc(Cl)cc1)C(=O)N[C@H](Cc1cccnc1)C(=O)N[C@@H](CO)C(=O)N[C@@H](Cc1ccc(O)cc1)C(=O)N[C@H](CCCNC(N)=O)C(=O)N[C@@H](CC(C)C)C(=O)N[C@@H](CCCNC(=N)N)C(=O)N1CCC[C@H]1C(=O)N[C@H](C)C(N)=O [Cetrorelix] (Ac-[d2Nal][dPhe(4-Cl)][d3Pal]SY[dCit]LRP[dA]-NH2),testosterone decrease,[1]; above those levels associated with castration,Submaximal decreases of testosterone occur
same,limitations in sexual performance,"[1]; human, in vivo",No limitations in sexual performance are observed
same,quality of life,"[1]; human, in vivo",significant improvements
same,increase of the peak flow of the urine,[1]; treatment of 4 to 8 weeks,approximately 3 ml/sec
same,patients achieving an improvement of the urine flow of 6 ml/sec,[1]; treatment of 4 to 8 weeks,at least 30%
same,testosterone levels during treatment,"[2]; 500 μg every 12 hours for 4 weeks, no castration values during last three weeks",fluctuated at subnormal levels
same,"testosterone levels, initially","[2]; 500 μg every 12 hours, all patients (BPH and prostate carcinoma), initially",lowering in testosterone levels to a castration level
same,overall condition of the patient,[3],considerable improvement

# From patent publication US6071882A, “Means for treating prostate hypertrophy and prostate cancer” (ASTA Medica AG, priority 1998, dated 2000)
